ChEMBL document CHEMBL3885881, “DrugMatrix”

Organism: Rattus norvegicus
Assay: DrugMatrix - Regimen: Daily Repeat
Format: toxicity, organism-based, Sprague-Dawley
Design: regimen Daily Repeat, gender Male, age 6-8 weeks
Conditions: in vivo, po, route oral GAVAGE, vehicle 100 % WATER; for ABSOLUTE BASOPHIL / ABSOLUTE EOSINOPHIL / ABSOLUTE LYMPHOCYTE / ABSOLUTE MONOCYTE / ABSOLUTE SEGMENTED NEUTROPHIL / BASOPHIL / EOSINOPHIL / ERYTHROCYTE COUNT / HEMATOCRIT / HEMOGLOBIN / LEUKOCYTE COUNT / LYMPHOCYTE / MEAN CORPUSCULAR HEMOGLOBIN / MEAN CORPUSCULAR HEMOGLOBIN CONCENTRATION / MEAN CORPUSCULAR VOLUME / MONOCYTE / NEUTROPHIL / NUCLEATED RED BLOOD CELLS / PLATELET COUNT: tissue Blood; for ALANINE AMINOTRANSFERASE / ALBUMIN / ALKALINE PHOSPHATASE / ASPARTATE AMINOTRANSFERASE / BLOOD UREA NITROGEN / CARBON DIOXIDE / CHLORIDE / CHOLESTEROL / CREATINE PHOSPHOKINASE / CREATININE / GLUCOSE / LACTATE DEHYDROGENASE / LIPASE / PHOSPHORUS / POTASSIUM / SODIUM / TOTAL BILIRUBIN / TOTAL PROTEIN / URIC ACID: tissue Plasma
[1] = 0 mg/kg, 72 h, dose level Control, time 3 day
[2] = 0 mg/kg, 120 h, dose level Control, time 5 day
[3] = 900 mg/kg, 72 h, dose level Low, time 3 day

## Clc1ccc(C(c2ccccc2Cl)C(Cl)Cl)cc1 (centres undefined) [MITOTANE]
[1]
  ABSOLUTE BASOPHIL: 0 CELLS/uL
  ABSOLUTE EOSINOPHIL: 58.83 CELLS/uL
  ABSOLUTE LYMPHOCYTE: 11823.5 CELLS/uL
  ABSOLUTE MONOCYTE: 169 CELLS/uL
  ABSOLUTE SEGMENTED NEUTROPHIL: 815.33 CELLS/uL
  BASOPHIL: 0%
  EOSINOPHIL: 0.5%
  ERYTHROCYTE COUNT: 5.52 x10E6/uL
  HEMATOCRIT: 35.77%
  HEMOGLOBIN: 14.28 G/DL
  LEUKOCYTE COUNT: 12.87 x10E3/uL
  LYMPHOCYTE: 91.67%
  MEAN CORPUSCULAR HEMOGLOBIN: 25.92 pg
  MEAN CORPUSCULAR HEMOGLOBIN CONCENTRATION: 39.95 G/DL
  MEAN CORPUSCULAR VOLUME: 64.85 fL
  MONOCYTE: 1.33%
  NEUTROPHIL: 6.5%
  NUCLEATED RED BLOOD CELLS: 0 /100WBC
  PLATELET COUNT: 1246.17 x10E3/uL
  ALANINE AMINOTRANSFERASE: 66 u/L
  ALBUMIN: 4.25 G/DL
  ALKALINE PHOSPHATASE: 416 u/L
  ASPARTATE AMINOTRANSFERASE: 106.17 u/L
  BLOOD UREA NITROGEN: 12.67 mg/dL
  CARBON DIOXIDE: 31.83 mmol/L
  CHLORIDE: 102.5 MEQ/L
  CHOLESTEROL: 69 mg/dL
  CREATINE PHOSPHOKINASE: 601.83 u/L
  CREATININE: 0.18 mg/dL
  GLUCOSE: 154.5 mg/dL
  LACTATE DEHYDROGENASE: 301.83 u/L
  LIPASE: 11.17 u/L
  PHOSPHORUS: 12.08 mg/dL
  POTASSIUM: 6.12 MEQ/L
  SODIUM: 145.2 MEQ/L
  TOTAL BILIRUBIN: 0.17 mg/dL
  TOTAL PROTEIN: 6.1 G/DL
  URIC ACID: 1.57 mg/dL
[2]
  ABSOLUTE BASOPHIL: 0 CELLS/uL
  ABSOLUTE EOSINOPHIL: 19.33 CELLS/uL
  ABSOLUTE LYMPHOCYTE: 12577.83 CELLS/uL
  ABSOLUTE MONOCYTE: 106.33 CELLS/uL
  ABSOLUTE SEGMENTED NEUTROPHIL: 896.5 CELLS/uL
  BASOPHIL: 0%
  EOSINOPHIL: 0.17%
  ERYTHROCYTE COUNT: 5.84 x10E6/uL
  HEMATOCRIT: 36.88%
  HEMOGLOBIN: 14.48 G/DL
  LEUKOCYTE COUNT: 13.6 x10E3/uL
  LYMPHOCYTE: 92.17%
  MEAN CORPUSCULAR HEMOGLOBIN: 24.85 pg
  MEAN CORPUSCULAR HEMOGLOBIN CONCENTRATION: 39.3 G/DL
  MEAN CORPUSCULAR VOLUME: 63.23 fL
  MONOCYTE: 0.83%
  NEUTROPHIL: 6.83%
  NUCLEATED RED BLOOD CELLS: 0 /100WBC
  PLATELET COUNT: 1223.5 x10E3/uL
  ALANINE AMINOTRANSFERASE: 55.33 u/L
  ALBUMIN: 4.08 G/DL
  ALKALINE PHOSPHATASE: 355.5 u/L
  ASPARTATE AMINOTRANSFERASE: 87.67 u/L
  BLOOD UREA NITROGEN: 15.33 mg/dL
  CARBON DIOXIDE: 33.83 mmol/L
  CHLORIDE: 99.67 MEQ/L
  CHOLESTEROL: 72.17 mg/dL
  CREATINE PHOSPHOKINASE: 268.33 u/L
  CREATININE: 0.15 mg/dL
  GLUCOSE: 152.5 mg/dL
  LACTATE DEHYDROGENASE: 212.67 u/L
  LIPASE: 10.83 u/L
  PHOSPHORUS: 11.65 mg/dL
  POTASSIUM: 6.73 MEQ/L
  SODIUM: 142.43 MEQ/L
  TOTAL BILIRUBIN: 0.23 mg/dL
  TOTAL PROTEIN: 6.07 G/DL
  URIC ACID: 1.7 mg/dL
[3]
  ABSOLUTE BASOPHIL: 0 CELLS/uL
  ABSOLUTE EOSINOPHIL: 0 CELLS/uL
  ABSOLUTE LYMPHOCYTE: 16524 CELLS/uL
  ABSOLUTE MONOCYTE: 175 CELLS/uL
  ABSOLUTE SEGMENTED NEUTROPHIL: 1001 CELLS/uL
  BASOPHIL: 0%
  EOSINOPHIL: 0%
  ERYTHROCYTE COUNT: 5.49 x10E6/uL
  HEMATOCRIT: 34.53%
  HEMOGLOBIN: 13.73 G/DL
  LEUKOCYTE COUNT: 17.7 x10E3/uL
  LYMPHOCYTE: 93.33%
  MEAN CORPUSCULAR HEMOGLOBIN: 25.03 pg
  MEAN CORPUSCULAR HEMOGLOBIN CONCENTRATION: 39.8 G/DL
  MEAN CORPUSCULAR VOLUME: 62.9 fL
  MONOCYTE: 1%
  NEUTROPHIL: 5.67%
  NUCLEATED RED BLOOD CELLS: 0 /100WBC
  PLATELET COUNT: 1289.67 x10E3/uL
  ALANINE AMINOTRANSFERASE: 54 u/L
  ALBUMIN: 4.23 G/DL
  ALKALINE PHOSPHATASE: 331.33 u/L
  ASPARTATE AMINOTRANSFERASE: 74.67 u/L
  BLOOD UREA NITROGEN: 13 mg/dL
  CARBON DIOXIDE: 33.67 mmol/L
  CHLORIDE: 101.67 MEQ/L
  CHOLESTEROL: 70.33 mg/dL
  CREATINE PHOSPHOKINASE: 271 u/L
  CREATININE: 0.45 mg/dL
  GLUCOSE: 144.67 mg/dL
  LACTATE DEHYDROGENASE: 135 u/L
  LIPASE: 12.67 u/L
  PHOSPHORUS: 12.8 mg/dL
  POTASSIUM: 6.89 MEQ/L
  SODIUM: 145.93 MEQ/L
  TOTAL BILIRUBIN: 0.1 mg/dL
  TOTAL PROTEIN: 6.03 G/DL
  URIC ACID: 1.6 mg/dL
